From the NIST ThermoML archive (doi:10.1021/je9000679)

Conditions: for surface tension liquid-gas: Maximal bubble pressure; for mass density: 101.33 kPa, Liquid

CCCCCC[n+]1ccccc1.[O]=[Re](=[O])(=[O])[O-] [1-hexylpyridinium perrhenate]
Conditions	mass density [kg/m3]	surface tension liquid-gas [mN/m]
293.15 K	1794.6	34.4
298.15 K	1787	34
303.15 K	1779	33.6
308.15 K	1771.3	33.2
313.15 K	1765	33
318.15 K	1759	32.6
323.15 K	1751.4	32.3
328.15 K	1743.9	32
333.15 K	1738	31.8
338.15 K	1732.3	31.5
343.15 K	1726.9	31.1
